Tests used:
[1] = Study B: multiple oral dose pharmacokinetics, 10 days; format: in vivo, human; conditions: for AUC(0-inf) / Cmax / half-life / Tmax / AUC(0-t): human, in vivo, oral
Procedure: Study B (five (5) cohorts of 8 subjects (6 active and 2 placebo)) evaluated 50 mg twice daily (BID) (100 mg daily), 100 mg once daily (QD) (100 mg daily), 100 mg BID (200 mg daily), 200 mg QD (200 mg daily), or 150 mg QD (150 mg daily), or matching placebo. Subjects received multiple oral doses of Compound 1 or placebo for 9 consecutive days, with a single oral dose of Compound 1 or placebo on the morning of Day 10. Doses were administered approximately 30 minutes after meals.
Table 13 summarizes PK parameters of Study B after 10 days. The reported factors may vary up to about 2%.

[2] = Study A: single oral dose pharmacokinetics in healthy subjects; format: in vivo, human; conditions: for AUC(0-t) / Tmax / AUC(0-inf) / Cmax / half-life: human, plasma, fasted; for AUC(0-t): po; for AUC(0-t) / AUC(0-inf) / Cmax / half-life: mean ± SD; for Tmax: Mean (Min, Max)
Procedure: Study A evaluated the safety and tolerability of 30, 80, 200, 500, 800, and 1000 mg in the fasted state and 200 mg following a high fat meal (fed state) to cohorts of 8 healthy subjects (6 active and 2 placebo control per group).
Table 12 summarizes PK parameters (mean) under fasted conditions of Study A. The reported factors may vary up to about 2%.

[3] = 100 mg, 100 mg BID, Day 1, value available for one subject

COc1ccccc1[C@H](Cn1c(=O)n(C(C)(C)C(=O)O)c(=O)c2c(C)c(-c3ncco3)sc21)OC1CCOCC1 [Compound 1, (R)-2-(1-(2-(2-methoxyphenyl)-2-((tetrahydro-2H-pyran-4-yl)oxy)ethyl)-5-methyl-6-(oxazol-2-yl)-2,4-dioxo-1,2-dihydrothieno[2,3-d]pyrimidin-3(4H)-yl)-2-methylpropanoic acid]
AUC(0-inf) ([1]; 50 mg, 50 mg BID, Day 1): 178 ± 41 ng·h/mL | Cmax ([1]; 50 mg, 50 mg BID, Day 1): 41 ± 14 ng/mL | half-life ([1]; 50 mg, 50 mg BID, Day 1): 3.5 ± 1.6 h | Tmax ([1]; 50 mg, 50 mg BID, Day 1, Mean (Min, Max)): 2.4 h | AUC(0-t) ([1]; 50 mg, 50 mg BID, Day 1, read-out: AUC0-12): 143 ± 29 ng·h/mL | AUC(0-t) ([1]; 50 mg, 50 mg BID, Day 1, read-out: AUC0-t): 143 ± 29 ng·h/mL | half-life ([1]; 50 mg, 50 mg BID, Day 10): 10.3 ± 6.7 h | AUC(0-t) ([1]; 50 mg, 50 mg BID, Day 10, read-out: AUC0-t): 403 ± 104 ng·h/mL | Cmax ([1]; 50 mg, 50 mg BID, Day 10 steady state): 49 ± 15 ng/mL | Tmax ([1]; 50 mg, 50 mg BID, Day 10 steady state, Mean (Min, Max)): 4.5 h | Cmax ([1]; 100 mg, 100 mg BID, Day 1): 61.6 ± 15 ng/mL | Tmax ([1]; 100 mg, 100 mg BID, Day 1, Mean (Min, Max)): 5.2 h | AUC(0-t) ([1]; 100 mg, 100 mg BID, Day 1, read-out: AUC0-12): 345 ± 78 ng·h/mL | AUC(0-t) ([1]; 100 mg, 100 mg BID, Day 1, read-out: AUC0-t): 345 ± 77 ng·h/mL | AUC(0-inf) [1, 3]: 671 ng·h/mL | half-life [1, 3]: 5.6 h | half-life ([1]; 100 mg, 100 mg BID, Day 10): 6.8 ± 1.6 h | AUC(0-t) ([1]; 100 mg, 100 mg BID, Day 10, read-out: AUC0-t): 1120 ± 362 ng·h/mL | Cmax ([1]; 100 mg, 100 mg BID, Day 10 steady state): 121 ± 56 ng/mL | Tmax ([1]; 100 mg, 100 mg BID, Day 10 steady state, Mean (Min, Max)): 5.2 h | AUC(0-inf) ([1]; 100 mg, 100 mg QD, Day 1): 278 ± 110 ng·h/mL | Cmax ([1]; 100 mg, 100 mg QD, Day 1): 65 ± 32 ng/mL | half-life ([1]; 100 mg, 100 mg QD, Day 1): 4.3 ± 0.7 h | AUC(0-t) ([1]; 100 mg, 100 mg QD, Day 1, read-out: AUC0-12): 234 ± 86 ng·h/mL | AUC(0-t) ([1]; 100 mg, 100 mg QD, Day 1, read-out: AUC0-t): 268 ± 96 ng·h/mL | half-life ([1]; 100 mg, 100 mg QD, Day 10): 7.9 ± 4.5 h | AUC(0-t) ([1]; 100 mg, 100 mg QD, Day 10, read-out: AUC0-12): 285 ± 115 ng·h/mL | AUC(0-t) ([1]; 100 mg, 100 mg QD, Day 10, read-out: AUC0-t): 400 ± 181 ng·h/mL | Cmax ([1]; 100 mg, 100 mg QD, Day 10 steady state): 54 ± 22 ng/mL | Tmax ([1]; 100 mg, 100 mg QD, Day 10 steady state, Mean (Min, Max)): 4.5 h | AUC(0-inf) ([1]; 150 mg, 150 mg QD, Day 1): 587 ± 254 ng·h/mL | Cmax ([1]; 150 mg, 150 mg QD, Day 1): 94 ± 40 ng/mL | half-life ([1]; 150 mg, 150 mg QD, Day 1): 3.9 ± 1.1 h | Tmax ([1]; 150 mg, 150 mg QD, Day 1, Mean (Min, Max)): 3.3 h | AUC(0-t) ([1]; 150 mg, 150 mg QD, Day 1, read-out: AUC0-12): 489 ± 218 ng·h/mL | AUC(0-t) ([1]; 150 mg, 150 mg QD, Day 1, read-out: AUC0-t): 572 ± 247 ng·h/mL | half-life ([1]; 150 mg, 150 mg QD, Day 10): 6.6 ± 2.8 h | AUC(0-t) ([1]; 150 mg, 150 mg QD, Day 10, read-out: AUC0-12): 637 ± 246 ng·h/mL | AUC(0-t) ([1]; 150 mg, 150 mg QD, Day 10, read-out: AUC0-t): 933 ± 424 ng·h/mL | Cmax ([1]; 150 mg, 150 mg QD, Day 10 steady state): 111 ± 52 ng/mL | Tmax ([1]; 150 mg, 150 mg QD, Day 10 steady state, Mean (Min, Max)): 6.5 h | AUC(0-inf) ([1]; 200 mg, 200 mg QD, Day 1): 979 ± 286 ng·h/mL | Cmax ([1]; 200 mg, 200 mg QD, Day 1): 152 ± 68 ng/mL | half-life ([1]; 200 mg, 200 mg QD, Day 1): 5.9 ± 3.6 h | Tmax ([1]; 200 mg, 200 mg QD, Day 1, Mean (Min, Max)): 4.7 h | AUC(0-t) ([1]; 200 mg, 200 mg QD, Day 1, read-out: AUC0-12): 707 ± 191 ng·h/mL | AUC(0-t) ([1]; 200 mg, 200 mg QD, Day 1, read-out: AUC0-t): 868 ± 220 ng·h/mL | half-life ([1]; 200 mg, 200 mg QD, Day 10): 5.9 ± 1 h | AUC(0-t) ([1]; 200 mg, 200 mg QD, Day 10, read-out: AUC0-12): 1220 ± 362 ng·h/mL | AUC(0-t) ([1]; 200 mg, 200 mg QD, Day 10, read-out: AUC0-t): 2050 ± 819 ng·h/mL | Cmax ([1]; 200 mg, 200 mg QD, Day 10 steady state): 198 ± 87 ng/mL | Tmax ([1]; 200 mg, 200 mg QD, Day 10 steady state, Mean (Min, Max)): 3.7 h | change of maximal exposure (Cmax) from Day 1 to Day 10 ([1]; multiple dosing, all regimens): generally increased | increase of overall exposure (AUCt) on Day 10 compared to Day 1 ([1]; multiple dosing, all regimens): 1.5-3.0 fold | range of mean t1/2 independent of dose or regimen on each study day ([1]; multiple dosing, all regimens): ≤ 2 fold | maximum plasma exposure (Cmax) lower under fed compared to fasted conditions ([2]; 200 mg, fed (high fat meal) versus fasted): approximately 68% | mean t1/2, CL/F, Vz/F and median tmax, fed versus fasted ([2]; 200 mg, fed and fasted conditions): comparable | AUC(0-t) ([2]; 30 mg, single oral dose 30 mg, read-out: AUC0-t): 176 ± 104 ng·h/mL | AUC(0-t) ([2]; 80 mg, single oral dose 80 mg, read-out: AUC0-12): 395 ± 198 ng·h/mL | AUC(0-t) ([2]; 80 mg, single oral dose 80 mg, read-out: AUC0-t): 363 ± 215 ng·h/mL | AUC(0-t) ([2]; 200 mg, single oral dose 200 mg, read-out: AUC0-12): 1000 ± 545 ng·h/mL | AUC(0-t) ([2]; 200 mg, single oral dose 200 mg, read-out: AUC0-t): 1210 ± 536 ng·h/mL | AUC(0-t) ([2]; 500 mg, single oral dose 500 mg, read-out: AUC0-12): 1240 ± 547 ng·h/mL | AUC(0-t) ([2]; 500 mg, single oral dose 500 mg, read-out: AUC0-t): 2930 ± 2440 ng·h/mL | AUC(0-t) ([2]; 800 mg, single oral dose 800 mg, read-out: AUC0-t): 6420 ± 3180 ng·h/mL | AUC(0-t) ([2]; 1000 mg, single oral dose 1000 mg, read-out: AUC0-t): 17400 ± 8400 ng·h/mL | Tmax ([2]; single oral dose 30 mg): 1.3 h | AUC(0-inf) ([2]; single oral dose 30 mg): 179 ± 115 ng·h/mL | Cmax ([2]; single oral dose 30 mg): 80 ± 66 ng/mL | half-life ([2]; single oral dose 30 mg): 4.5 ± 1.6 h | Tmax ([2]; single oral dose 80 mg): 1.8 h | AUC(0-inf) ([2]; single oral dose 80 mg): 402 ± 225 ng·h/mL | Cmax ([2]; single oral dose 80 mg): 101 ± 48 ng/mL | half-life ([2]; single oral dose 80 mg): 7 ± 2.8 h | Tmax ([2]; single oral dose 200 mg): 1.9 h | AUC(0-inf) ([2]; single oral dose 200 mg): 1250 ± 616 ng·h/mL | Cmax ([2]; single oral dose 200 mg): 416 ± 22 ng/mL | half-life ([2]; single oral dose 200 mg): 12 ± 1.4 h | Tmax ([2]; single oral dose 500 mg): 1.9 h | AUC(0-inf) ([2]; single oral dose 500 mg): 2960 ± 2460 ng·h/mL | Cmax ([2]; single oral dose 500 mg): 1110 ± 1150 ng/mL | half-life ([2]; single oral dose 500 mg): 10.2 ± 2.1 h | Tmax ([2]; single oral dose 800 mg): 2.1 h | AUC(0-inf) ([2]; single oral dose 800 mg): 6460 ± 3190 ng·h/mL | Cmax ([2]; single oral dose 800 mg): 2570 ± 1880 ng/mL | half-life ([2]; single oral dose 800 mg): 8.2 ± 3.3 h | Tmax ([2]; single oral dose 1000 mg): 2.4 h | AUC(0-inf) ([2]; single oral dose 1000 mg): 17500 ± 8410 ng·h/mL | Cmax ([2]; single oral dose 1000 mg): 8380 ± 3210 ng/mL | half-life ([2]; single oral dose 1000 mg): 9.5 ± 2.6 h

From patent publication US11912718B2, “Solid forms of a thienopyrimidinedione ACC inhibitor and methods for production thereof” (Gilead Apollo, LLC, priority 2016, dated 2024)
